Key:
Alternaria kikuchiana [1] = test: Pear Black Spot-controlling Test; details: 500 ppm, six days after inoculation
Description: Pear Black Spot (Alternaria kikuchiana)-controlling Test
(§1) The resulting solution is sprayed on unfolded leaves of potted young pears (variety: Niju-seiki) in an amount corresponding to 600 l/10a per pot. After air-drying, the unfolded leaves are inoculated with Alternaria kikuchiana, by spraying a suspension of conidia thereof containing 30 conidia per microscopic field (magnification: X200).
(§2) After inoculation, the potted young pears are allowed to stand at a temperature of 27° C. in a moist room for one day and then transferred to a greenhouse. Six days after inoculation, the leaf area infested by pear black spot, i.e., the area of pathologic spots on a leaf is examined on 5 unfolded leaves per pot and an average infestation rate is then calculated.

[2] = system: potted young pears (variety: Niju-seiki); test: Phytotoxicity of treating compound, Pear Black Spot test; details: 500 ppm, damaged area on leaves
Description: as §1, §2
*The phytotoxicity of the treating compound is evaluated according to the

Diaporthe citri [3] = test: Test of Residual Activity against Citrus Melanose; type: in vivo; details: 1000 ppm, 23 mm/hr of rain; for Infested Leaves (%): 24 days after inoculation; for Infestation Rate: 24 days, (Σnf/4N)×100; for Number of Leaves Showing Each Infestation Index: 0: index 0 = 0-25% infested area; for Number of Leaves Showing Each Infestation Index: 1: index 1 = 26-50% infested area; for Number of Leaves Showing Each Infestation Index: 2: index 2 = 51-75% infested area; for Number of Leaves Showing Each Infestation Index: 3: index 3 = 76-90% infested area; for Number of Leaves Showing Each Infestation Index: 4: index 4 = 91-100% infested area
Diaporthe citri [4] = test: Citrus Melanose-controlling Test; type: in vivo; details: 500 ppm; for Infested Leaves (%): 24 days after inoculation; for Infestation Rate / Number of Leaves Showing Infestation Index 0 / Number of Leaves Showing Infestation Index 1 / Number of Leaves Showing Infestation Index 2 / Number of Leaves Showing Infestation Index 3 / Number of Leaves Showing Infestation Index 4: 24 days; for Infestation Rate: (Σnf/4N)×100; for Number of Leaves Showing Infestation Index 0: index 0 = 0-25% infested area; for Number of Leaves Showing Infestation Index 1: index 1 = 26-50% infested area; for Number of Leaves Showing Infestation Index 2: index 2 = 51-75% infested area; for Number of Leaves Showing Infestation Index 3: index 3 = 76-90% infested area; for Number of Leaves Showing Infestation Index 4: index 4 = 91-100% infested area
Alternaria kikuchiana [5] = test: Spore-germination Inhibiting Test; type: cell-based; details: 10 ppm, 27° C., 20 hours
Description: Spore-germination Inhibiting Test for Alternaria kukuchiana An apricot medium is inoculated with Alternaria kikuchiana and incubated at a temperature of 27° C. for 7-10 days to form conidia on the medium. […] 0.02 Ml of the prepared spore suspension containing the compound according to the present invention is dropped on a slide glass and incubated at a temperature of 27° C. under moist conditions for 20 hours. Thereafter, whether or not the spores germinate is examined under a microscope and the spore-germination rate is then calculated.

[6] = system: potted young oranges (variety: Unshu); test: Phytotoxicity of treating compound, Citrus Melanose test; details: 500 ppm
[7] = system: potted young oranges (variety: Unshu); test: Phytotoxicity of treating compound, residual activity test; details: 1000 ppm, 23 mm/hr of rain

| SMILES | Average Infestation Rate (%) (Based on infested area) (Alternaria kikuchiana [1]) | Phytotoxicity of Treating Compound [2] | Infested Leaves (%) (Diaporthe citri [3]) | Infestation Rate (Diaporthe citri [3]) | Number of Leaves Showing Each Infestation Index: 0 (Diaporthe citri [3]) [leaves] | Number of Leaves Showing Each Infestation Index: 1 (Diaporthe citri [3]) [leaves] | Number of Leaves Showing Each Infestation Index: 2 (Diaporthe citri [3]) [leaves] | Number of Leaves Showing Each Infestation Index: 3 (Diaporthe citri [3]) [leaves] | Number of Leaves Showing Each Infestation Index: 4 (Diaporthe citri [3]) [leaves] | Infested Leaves (%) (Diaporthe citri [4]) | Infestation Rate (Diaporthe citri [4]) | Number of Leaves Showing Infestation Index 0 (Diaporthe citri [4]) [leaves] | Number of Leaves Showing Infestation Index 1 (Diaporthe citri [4]) [leaves] | Number of Leaves Showing Infestation Index 2 (Diaporthe citri [4]) [leaves] | Number of Leaves Showing Infestation Index 3 (Diaporthe citri [4]) [leaves] | Number of Leaves Showing Infestation Index 4 (Diaporthe citri [4]) [leaves] | Spore-germination Rate (%) (Alternaria kikuchiana [5]) | Phytotoxicity of Treating Compound [6] | Phytotoxicity of Treating Compound [7] |
| --- | --- | --- | --- | --- | --- | --- | --- | --- | --- | --- | --- | --- | --- | --- | --- | --- | --- | --- | --- |
| CC(C)NC(=O)N1CC(=O)N(c2cc(Cl)cc(Cl)c2)C1=O [iprodione, 1-Isopropylcarbamoyl-3-(3',5'-dichlorophenyl)-hydantoin] | 11 | - (0%) | – | – | – | – | – | – | – | – | – | – | – | – | – | – | – | – | – |
| O=C1C=CC(=O)N1c1cccc(OC(F)F)c1 [compound 5] | 55 | +++ (≥51%) | 87 | 43 | 22 | 43 | 72 | 28 | 7 | 85 | 43 | 33 | 63 | 71 | 30 | 18 | 5 | ++ (26-50%) | ++ (26-50%) |
| O=C1C(Cl)=C(Cl)C(=O)N1c1cccc(OC(F)F)c1 [compound 2, 2,3-dichloro-N-(m-difluoromethoxyphenyl)maleimide] | 9 | ± (1-5%) | 2 | 0.5 | 181 | 4 | 0 | 0 | 0 | 0.5 | 0.1 | 210 | 1 | 0 | 0 | 0 | 0 | - (0%) | ± (1-5%) |
| O=C1C=CC(=O)N1c1ccccc1OC(F)F [compound 4] | 15 | ± (1-5%) | 82 | 30 | 30 | 82 | 43 | 10 | 0 | 1.0 | 0.2 | 218 | 2 | 0 | 0 | 0 | 7 | - (0%) | + (6-25%) |
| [Cu+2].[O-]c1cccc2cccnc12.[O-]c1cccc2cccnc12 [oxinecopper, 8-Hydroxyquinoline-Cu] | – | – | 81 | 26 | 35 | 113 | 37 | 2 | 0 | – | – | – | – | – | – | – | – | – | ± (1-5%) |
| O=C1C(Cl)=C(Cl)C(=O)N1c1ccccc1OC(F)F [compound 1, 2,3-dichloro-N-(o-difluoromethoxyphenyl)maleimide] | 9 | ± (1-5%) | 22 | 7 | 122 | 27 | 6 | 1 | 0 | 0.5 | 0.1 | 221 | 1 | 0 | 0 | 0 | 7 | - (0%) | ± (1-5%) |
| COc1ccc(N2C(=O)C(Cl)=C(Cl)C2=O)cc1 [compound 9] | 28 | ± (1-5%) | 36 | 12 | 113 | 45 | 18 | 1 | 0 | 98 | 43 | 5 | 86 | 115 | 30 | 0 | 9 | - (0%) | - (0%) |
| COc1cccc(N2C(=O)C(Cl)=C(Cl)C2=O)c1 [compound 8] | 20 | ± (1-5%) | 78 | 31 | 35 | 58 | 61 | 7 | 0 | 10 | 3.3 | 109 | 14 | 7 | 1 | 0 | 25 | - (0%) | - (0%) |
| COc1ccccc1N1C(=O)C(Cl)=C(Cl)C1=O [compound 7] | 32 | ++ (26-50%) | 29 | 9 | 115 | 36 | 11 | 1 | 0 | 98 | 43 | 5 | 85 | 111 | 32 | 0 | 75 | + (6-25%) | + (6-25%) |
| O=C1C=CC(=O)N1c1ccc(OC(F)F)cc1 [compound 6] | 36 | ++ (26-50%) | 91 | 34 | 15 | 86 | 45 | 13 | 0 | 98 | 43 | 257 | 110 | 103 | 44 | 0 | 4 | + (6-25%) | + (6-25%) |

— patent US4455315A, “N-(Difluoromethoxy substituted phenyl)-dichloromaleimides used in agricultural and horticultural fungicidal methods” (Showa Denko Kabushiki Kaisha, priority 1980, dated 1984)
